The subject of test [1] is G401 cells. The experiment in a line: Cancer cell proliferation inhibition (Cell Counting Kit-8), rhabdoid tumor cell line. The class given is cell-based. The conditions noted are these: 1000 nM, cultured seven to 11 days; for inhibition at 1 µM: Homo sapiens, G-401, 264 h, read-out: % inhibition rate G401. In short, it runs like this: (§1)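 Cells grown in RPMI1640, McCoy's 5a, L-15 or DMEM with 10% FBS, seeded at 100 to 1,000 cells/well and treated with test substance at 1000 nM for 7 to 11 days. Viability read by CCK-8; % inhibition = {1−(test/control)} × 100.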

Test [2] has as its system MKN-45 cells. The experiment in a line: Cancer cell proliferation inhibition (Cell Counting Kit-8), gastric cancer cell line. The class given is cell-based. Conditions: 1000 nM, cultured seven to 11 days; for inhibition at 1 µM: Homo sapiens, MKN-45, 264 h, read-out: % inhibition rate MKN -45. In short, it runs like this:
as §1
A general note: Formazan colour is commonly taken as a measure of viable cells.

Test [3] has as its target EZH2 (Homo sapiens, UniProt Q15910). The experiment in a line: AlphaLISA enzyme activity inhibition, EZH2. The class given is biochemical. The conditions noted are these: for inhibition at 0.005 µM: 5nM test substance; for inhibition at 0.01 µM: 10nM test substance. In a few lines:
(§2)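 EZH1 or EZH2 was mixed with compound at 5 nM or 10 nM final in 20 mM Tris pH 8.0, 0.1% BSA, 0.5 mM DTT, then histone H3 peptide and SAM were added. After 2 h reaction, AlphaLISA acceptor and donor beads detected methylation; inhibition rate was calculated against DMSO control.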

Test [4] relates to MIA-PaCa-2 cells. The experiment in a line: Cancer cell proliferation inhibition (Cell Counting Kit-8), pancreatic cancer cell line. The class given is cell-based. Conditions: 1000 nM, cultured seven to 11 days; for inhibition at 1 µM: Homo sapiens, MIA PaCa-2, 264 h, read-out: % inhibition rate MIA-Paca2. In a few lines: (§3)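 One dose only (1000 nM), 7–11 d exposure, 10% FBS in line-appropriate medium; CCK-8 endpoint, inhibition expressed relative to control.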

Test [5] concerns SW-13 cells. The experiment in a line: Cancer cell proliferation inhibition (Cell Counting Kit-8), adrenal cancer cell line. It is filed as cell-based. Conditions: 1000 nM, cultured seven to 11 days; for inhibition at 1 µM: Homo sapiens, SW13, 264 h, read-out: % inhibition rate SW-13. In a few lines: as §3
Test [6] has as its system NCI-H1299 cells. The experiment in a line: Cancer cell proliferation inhibition (Cell Counting Kit-8), lung cancer cell line. The class given is cell-based. The conditions noted are these: Homo sapiens, NCI-H1299, 264 h, 1000 nM, cultured seven to 11 days; read-out: % inhibition rate NCI-H129 9. In short, it runs like this:
as §3

The target in test [7] is EZH1 (Homo sapiens, UniProt Q92800). The experiment in a line: AlphaLISA enzyme activity inhibition, EZH1. The class given is biochemical. The conditions noted are these: for inhibition at 0.005 µM: 5nM test substance; for inhibition at 0.01 µM: 10nM test substance. In short, it runs like this:
as §2
(Bead proximity is the source of the signal in Alpha formats.)

Test [8] relates to Lovo cells. The experiment in a line: Cancer cell proliferation inhibition (Cell Counting Kit-8), colorectal cancer cell line. Conditions: Homo sapiens, LoVo, 264 h, 1000 nM, cultured seven to 11 days; read-out: % inhibition rate LoVo. It is filed as cell-based. In a few lines: as §3

The structures appear in SMILES notation.

A word on the inhibition: it is how much of the control response was suppressed.

EZH2, sequence (Q15910 whole entry, species assumed): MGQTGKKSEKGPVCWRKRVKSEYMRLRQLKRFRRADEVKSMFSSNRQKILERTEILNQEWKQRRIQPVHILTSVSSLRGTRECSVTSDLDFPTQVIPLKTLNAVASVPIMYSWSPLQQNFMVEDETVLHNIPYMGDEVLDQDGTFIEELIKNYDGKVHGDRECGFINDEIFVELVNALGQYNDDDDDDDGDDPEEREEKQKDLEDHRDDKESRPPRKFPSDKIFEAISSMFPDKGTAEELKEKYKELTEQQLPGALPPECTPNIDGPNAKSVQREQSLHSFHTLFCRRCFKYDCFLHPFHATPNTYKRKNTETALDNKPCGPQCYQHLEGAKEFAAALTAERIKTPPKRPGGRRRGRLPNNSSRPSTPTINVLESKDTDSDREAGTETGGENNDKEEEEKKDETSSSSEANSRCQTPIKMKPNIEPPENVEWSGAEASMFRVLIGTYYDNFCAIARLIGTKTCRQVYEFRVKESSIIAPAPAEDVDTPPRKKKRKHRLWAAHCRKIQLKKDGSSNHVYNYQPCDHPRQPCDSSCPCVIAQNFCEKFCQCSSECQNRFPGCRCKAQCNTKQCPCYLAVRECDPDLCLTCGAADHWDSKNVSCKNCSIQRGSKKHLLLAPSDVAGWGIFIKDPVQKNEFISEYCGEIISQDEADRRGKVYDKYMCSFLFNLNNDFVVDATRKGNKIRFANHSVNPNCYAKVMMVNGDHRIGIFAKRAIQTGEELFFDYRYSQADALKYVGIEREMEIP
EZH2, sequence (O75530 whole entry partner, species assumed): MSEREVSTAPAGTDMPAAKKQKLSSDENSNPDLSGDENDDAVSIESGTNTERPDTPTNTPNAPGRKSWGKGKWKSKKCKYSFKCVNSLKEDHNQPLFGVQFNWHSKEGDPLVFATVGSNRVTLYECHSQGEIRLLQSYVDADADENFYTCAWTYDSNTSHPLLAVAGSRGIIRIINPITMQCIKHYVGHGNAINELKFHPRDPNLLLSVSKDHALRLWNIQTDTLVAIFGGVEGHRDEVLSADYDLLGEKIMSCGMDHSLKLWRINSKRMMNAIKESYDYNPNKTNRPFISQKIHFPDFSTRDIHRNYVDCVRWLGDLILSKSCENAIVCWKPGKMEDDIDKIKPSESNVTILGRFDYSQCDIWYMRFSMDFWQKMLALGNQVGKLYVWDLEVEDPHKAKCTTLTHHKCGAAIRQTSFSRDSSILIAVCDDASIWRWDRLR
EZH2, sequence (Q15022 whole entry partner, species assumed): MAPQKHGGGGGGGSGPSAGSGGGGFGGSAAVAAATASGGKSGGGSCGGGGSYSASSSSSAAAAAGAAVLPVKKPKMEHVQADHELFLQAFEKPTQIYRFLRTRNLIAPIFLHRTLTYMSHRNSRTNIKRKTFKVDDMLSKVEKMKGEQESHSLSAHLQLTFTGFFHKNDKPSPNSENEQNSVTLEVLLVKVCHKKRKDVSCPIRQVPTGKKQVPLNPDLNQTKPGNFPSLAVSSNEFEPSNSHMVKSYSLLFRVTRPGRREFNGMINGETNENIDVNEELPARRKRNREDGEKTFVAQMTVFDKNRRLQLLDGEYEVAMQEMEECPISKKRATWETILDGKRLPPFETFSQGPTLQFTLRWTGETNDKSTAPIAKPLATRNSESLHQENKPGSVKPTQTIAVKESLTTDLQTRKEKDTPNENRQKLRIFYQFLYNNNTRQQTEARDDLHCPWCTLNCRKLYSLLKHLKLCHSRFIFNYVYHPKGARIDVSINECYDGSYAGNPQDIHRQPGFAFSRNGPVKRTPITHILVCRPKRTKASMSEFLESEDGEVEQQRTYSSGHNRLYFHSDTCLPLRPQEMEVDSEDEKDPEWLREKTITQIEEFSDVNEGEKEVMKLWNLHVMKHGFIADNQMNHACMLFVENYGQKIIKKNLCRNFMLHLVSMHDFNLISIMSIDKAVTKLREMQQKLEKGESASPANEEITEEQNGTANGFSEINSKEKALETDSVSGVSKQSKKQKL
EZH1, sequence (Q92800 whole entry, species assumed): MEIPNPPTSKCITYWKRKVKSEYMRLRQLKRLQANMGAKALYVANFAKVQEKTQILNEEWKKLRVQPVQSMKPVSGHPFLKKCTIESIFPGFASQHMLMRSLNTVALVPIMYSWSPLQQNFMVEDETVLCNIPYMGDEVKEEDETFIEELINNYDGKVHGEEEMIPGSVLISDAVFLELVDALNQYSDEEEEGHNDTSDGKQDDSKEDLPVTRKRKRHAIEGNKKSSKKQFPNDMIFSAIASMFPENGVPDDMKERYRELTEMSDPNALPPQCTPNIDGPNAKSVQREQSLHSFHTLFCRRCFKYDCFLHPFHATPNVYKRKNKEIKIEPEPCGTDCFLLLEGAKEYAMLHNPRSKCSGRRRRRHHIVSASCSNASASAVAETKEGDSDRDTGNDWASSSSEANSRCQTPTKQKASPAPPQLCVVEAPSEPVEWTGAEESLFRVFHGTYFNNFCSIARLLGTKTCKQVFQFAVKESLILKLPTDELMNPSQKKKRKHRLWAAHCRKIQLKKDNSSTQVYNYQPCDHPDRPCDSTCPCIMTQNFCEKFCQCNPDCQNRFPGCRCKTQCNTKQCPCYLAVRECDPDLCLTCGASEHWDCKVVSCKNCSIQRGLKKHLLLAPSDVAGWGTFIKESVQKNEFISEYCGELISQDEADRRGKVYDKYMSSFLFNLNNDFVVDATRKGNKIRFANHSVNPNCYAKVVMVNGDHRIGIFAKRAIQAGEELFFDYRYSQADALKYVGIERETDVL
EZH1, sequence (O75530 whole entry partner, species assumed): as the sequence (O75530 whole entry partner, species assumed) above
EZH1, sequence (Q15022 whole entry partner, species assumed): as the sequence (Q15022 whole entry partner, species assumed) above

For the compound `CSc1cc(C)[nH]c(=O)c1CNC(=O)c1cc(-c2ccc3occc3c2)c2c(c1C)OC(C)(C1CCN(CC(F)(F)F)CC1)O2` (centres unmarked) [Compound 96, 7-(benzofuran-5-yl)-2,4-dimethyl-N-((6-methyl-4-(methylthio)-2-oxo-1,2-dihydropyridin-3-yl)methyl)-2-(1-(2,2,2-trifluoroethyl)piperidin-4-yl)benzo[d][1,3]dioxole-5-carboxamide], the inhibition at 1 µM in test [1] is at most 30%; in test [2], at most 30%; in test [4], at most 30%; in test [5], at most 30%; in test [6] it was at most 30%; in test [8], at least 70%. Further, the results for the inhibition at 0.005 µM in test [3] and in test [7] were 58.4% and 19.2%, respectively. The inhibition at 0.01 µM worked out at 78% in test [3] and 14.8% in test [7].

For the compound `CSc1cc(C)[nH]c(=O)c1CNC(=O)c1cc(-c2ccc(N3C[C@@H](C)O[C@@H](C)C3)nc2)c2c(c1C)OC(C)([C@H]1CC[C@H](N3CC(OCC(F)F)C3)CC1)O2` (stereo partly drawn) [Compound 103, 2-(trans-4-(3-(2,2-difluoroethoxy)azetidin-1-yl)cyclohexyl)-7-(6-((2S,6R)-2,6-dimethylmorpholino)pyridin-3-yl)-2,4-dimethyl-N-((6-methyl-4-(methylthio)-2-oxo-1,2-dihydropyridin-3-yl)methyl)benzo[d][1,3]dioxole-5-carboxamide], the inhibition at 1 µM in test [1] is at least 70%; in test [6] it was at most 30%; in test [8], at least 70%. In addition, in test [2] (1 µM), the “% inhibition rate MKN -45” value is listed as “+++ (+++: ≥70%)”. Further, the results for the inhibition at 0.005 µM in test [3] and in test [7] were 27.1% and 10.7%, respectively. For the same compound, the values for the inhibition at 0.01 µM in test [3] and in test [7] were 72.5% and 20.5%, respectively. The “% inhibition rate MIA-Paca2” value in test [4] (1 µM) is “+++ (+++: ≥70%)”. For the same compound, the “% inhibition rate SW-13” value in test [5] (1 µM) was “+++ (+++: ≥70%)”.

With `CSc1cc(C)[nH]c(=O)c1CNC(=O)c1cc(-c2cnc(N3CCC4(CC3)COC4)nc2)c2c(c1C)OC(C)([C@H]1CC[C@H](N(C)C)CC1)O2` (relative stereo) [Compound 15, 7-(2-(2-oxa-7-azaspiro[3.5]nonan-7-yl)pyrimidin-5-yl)-2-(trans-4-(dimethylamino)cyclohexyl)-2,4-dimethyl-N-((6-methyl-4-(methylthio)-2-oxo-1,2-dihydropyridin-3-yl)methyl)benzo[d][1,3]dioxole-5-carboxamide], the inhibition at 1 µM is 30 to 70% in test [1]; 30 to 70% in test [2]; at most 30% in test [4]; 30 to 70% in test [5]; at most 30% in test [6]; at least 70% in test [8]. For the same compound, the inhibition at 0.005 µM in test [3] was 99.8%; in test [7] it was 94.5%.

Consider `CCN1CCC(C2(C)Oc3c(-c4cnc(N5CCOCC5)nc4)cc(C(=O)NCc4c(SC)cc(C)[nH]c4=O)c(C)c3O2)CC1` (single isomer, unassigned) [Compound 73, 2-(1-ethylpiperidin-4-yl)-2,4-dimethyl-N-((6-methyl-4-(methylthio)-2-oxo-1,2-dihydropyridin-3-yl)methyl)-7-(2-morpholinopyrimidin-5-yl)benzo[d][1,3]dioxole-5-carboxamide], for which, in test [1] (1 µM), the “% inhibition rate G401” value is given as “+++ (+++: ≥70%)”. Also, the inhibition at 1 µM was 30 to 70% in test [2]; at most 30% in test [4]; 30 to 70% in test [5]; at most 30% in test [6]; 30 to 70% in test [8]. Further, the inhibition at 0.005 µM in test [3] came to 99.2%; in test [7], 75.7%. In addition, the inhibition at 0.01 µM in test [3] is 99.5%; in test [7] it was 88%.
